Test results reported in patent publication US11820720B2, “3-(5-substituted-4-oxoquinazolin-3(4H)-yl)-3-deuteropiperidine-2,6-dione derivatives and compositions comprising and methods of using the same” (DeuteRx, LLC, priority 2013, dated 2023).

Experiments:
[1] = In vitro stability in human plasma at 37° C. (enantiomerization, D/H exchange, degradation); format: in vitro ADME
Description: (§1) (+)- and (−)-3-(5-Amino-2-methyl-4-oxoquinazolin-3(4H)-yl)-piperidine-2,6-dione and rac-3-(5-amino-2-methyl-4-oxoquinazolin-3(4H)-yl)-(3-^2H)-piperidine-2,6-dione (87% deuterium content at the C3-position and no detectable deuterium at the C5-position, 50:50 racemic mixture of (+)- and (−)-deuterated enantiomers) were incubated in CD-1 mouse plasma (K3EDTA as anticoagulant) or human plasma (K3EDTA as anticoagulant) at 37° C. in duplicates. Aliquots were removed at t=0, 0.5, 1, 2, 6, 8, 24, 48, and 96 h.
(§2) Plasma proteins were precipitated by addition of acetonitrile containing internal standard (ISTD, tolbutamide) and the supernatants were analyzed semi-quantitatively by LC/MS-MS with elution on a chiral column (Daicel ChiralPak IE-3) for the separation of enantiomers (isocratic method of 20:80 v/v 0.1% acetic acid in water and acetonitrile). Peak areas for the deuterated enantiomers (+)- and (−)-3-(5-amino-2-methyl-4-oxoquinazolin-3(4H)-yl)-(3-^2H)-piperidine-2,6-dione were normalized to the ISTD and corrected for the isotopic peak of the corresponding protonated enantiomer, (+)- and (−)-3-(5-amino-2-methyl-4-oxoquinazolin-3(4H)-yl)-piperidine-2,6-dione respectively, if present. Corrected data were analyzed and plotted using Microsoft Excel 2013 (Microsoft Corp, Redmond, WA) and the Excel Solver.
(§3) Scheme 1 below illustrates the possible reactions in a solution of deuterated racemate. The deuterium in both enantiomers, d+ and d−, can be lost by D/H exchange to give both protonated enantiomers, h+ and h− with rate constants kD++, kD+−, kD−+, kD−−. At the same time, the protonated enantiomers h+ and h−, can exchange, with enantiomerization rate constants k+− and k−+. All four compounds can also degrade with potentially different degradation rate constants kh+d, kh−d, kd+d, kd−d.
(§4) Human and mouse plasma data were analyzed independently. Independent analyses of the data for h+ and h− were performed first and the average rate constants k+− and k−+ from these two fits were calculated and used as constants in the fitting of the stability data of the deuterated racemate. Calculated concentrations were obtained through numerical approximation of differential equations (1) and (2) for the stability studies of h+ and h− and equations (3) to (6) for the stability study of deuterated racemate (50:50 d+:d−) by the Euler method (equation (7)). The step between calculated time points was minimized in order to minimize the local error (proportional to the square of the step size) and the global error (proportional to the step size).
(§5) The average degradation rate constant obtained by fitting the data for h+ and h− was used in the fit of the stability data of the deuterated racemate. Data analysis was performed in Microsoft Excel 2013, using the Solver Generalized Reduced Gradient Nonlinear method with central derivatives to minimize the sum of sums of weighted Δ^2, square of difference between ISTD-normalized experimental data and calculated value, divided by the experimental data.
(§6) [formula] where [h+], [h−], [d+], [d−] are the concentrations of both protonated and deuterated enantiomers, k+− and k−+ are the rate constants for the enantiomerization reactions [h+] to [h−] and [h−] to [h+] respectively, kD++, kD+−, kD−+, and kD−− are the rate constants for the D/H exchange reactions [d+] or [d−] to [h+] or [h−], and kd is the rate constant for the degradation of all four compounds
(§7) [formula] where [X]ti is the concentration of either enantiomer at time ti, t1 is a time at which [X] is known, t2 is a time at which [X] is calculated, and [d[X]]t1 is the calculated value of the differential equation at time t1.

[2] = In vitro stability in CD-1 mouse plasma at 37° C. (enantiomerization, D/H exchange, degradation); format: in vitro ADME
Description: as §1, §2, §3, §4, §5, §6, §7

[3] = Pharmacokinetics after single oral gavage dose in female CB.17 SCID mice; format: in vivo; conditions: for AUC, compound analyzed d+ / AUC, compound analyzed d− / AUC, compound analyzed h+ / AUC, compound analyzed h−: 15 mg/kg
Description: Female CB.17 SCID mice (8-12 weeks of age) were administered a single dose of protonated racemate (h-rac, 30 mg/kg), d− (15 mg/kg), or d+ (15 mg/kg) by oral gavage. Deuterated enantiomers (i.e., d− and d+) used in this study contain ˜10% of the corresponding protonated enantiomer. Blood was collected into potassium EDTA (K2EDTA) containers by terminal cardiac puncture under carbon dioxide anesthesia from N=3 per group per time point at 0.25, 0.5, 1, 2, 4, 8, and 24 h post-dose. Plasma was isolated, frozen, and stored until ready for analysis.
Samples were prepared for quantitative analysis by liquid-liquid extraction in methyl-t-butylether (MTBE) with ondansetron as internal standard (ISTD). MTBE was evaporated under nitrogen flow and samples were reconstituted in 1% acetic acid in water/acetonitrile (20/80). Analysis was performed by chiral LC/MS-MS on a Daicel ChiralPak IE-3 column using an isocratic LC method of 0.1% acetic acid in water and acetonitrile (20:80 v/v). ISTD-normalized peak areas for deuterated enantiomers d- and d+ were corrected from interference from naturally occurring isotopes of the protonated analytes. Concentrations were obtained by interpolation on standard curves prepared in mouse plasma using standard solutions of the analytes.
Data was plotted in Excel 2013 (Microsoft Corp, Redmond, WA) and analyzed within Excel using the PKSolver add-in (version 2.0, as described in Zhang Y. et al Comput. Methods Programs Biomed. 99 (2010), 306-314) to determine pharmacokinetic parameters including exposure (as area under the curve, AUC) and elimination half-life (t1/2).

[4] = test system: Human Multiple Myeloma H929 Cell Line; assay: Efficacy in human multiple myeloma H929 xenograft in female CB.17 SCID mice; format: in vivo; conditions: daily oral gavage 23 days, FIG. 10; for potency/efficacy at limiting tumor growth, comparison between compounds: d− and d+ 1.5 or 15 mg/kg, h-rac 3 mg/kg
Description: Female CB.17 SCID mice (8-12 weeks of age, N=60) were administered 1×10^7 H929 tumor cells in 50% Matrigel subcutaneously in their flank (0.2 mL/mouse). Animals were returned to their cages and tumor growth was monitored. Tumor size was reported as tumor volume (Vol) calculated as Vol=½ (L*W^2), where L and W are the length and width of the tumor as measured by caliper (L>W). A pair match was performed when tumors reached an average size of 100-150 mm^3 and the animals were divided into 6 treatment groups of N=10 animals each.
Animals were treated daily by oral gavage (10 mL/kg) with vehicle, d− (1.5 or 15 mg/kg), d+ (1.5 or 15 mg/kg), or h-rac (racemic mixture of protonated enantiomers h− and h+; 3 mg/kg). The compound h-rac was administered at twice the dose of the deuterated enantiomers since it contains 50% (i.e., 1.5 mg/kg) of each enantiomer. Body weight measurements were taken daily for the first week then biweekly. Tumor sizes were measured by caliper biweekly. The study was terminated after 23 days of dosing, then all animals were euthanized.

[5] = human plasma, 37° C., fit to equations 1 to 6
[6] = human plasma, 37° C., average of values for h− and h+
[7] = mouse plasma, 37° C., fit to equations 1 to 6
[8] = mouse plasma, 37° C., average of values for h− and h+
[9] = mouse plasma, single oral gavage 15 mg/kg

3-(5-amino-2-methyl-4-oxoquinazolin-3(4H)-yl)-(3-^2H)-piperidine-2,6-dione [d-rac]
Calculated half-life t1/2, D/H exchange of d+ (D++ and D+−) ([1]; human plasma, 37° C.): 8.3 h | Calculated half-life t1/2, D/H exchange of d− (D−+ and D−−) ([1]; human plasma, 37° C.): 5.2 h | Calculated half-life t1/2, degradation d ([1]; human plasma, 37° C.): 7.8 h | Calculated half-life t1/2, enantiomerization +− ([1]; human plasma, 37° C.): 2.6 h | Calculated half-life t1/2, enantiomerization −+ ([1]; human plasma, 37° C.): 3.6 h | k D++ (rate constant D/H exchange d+ to h+) [1, 5]: 2.33e-05 s⁻¹ | k D+− (rate constant D/H exchange d+ to h−) [1, 5]: 0 s⁻¹ | k D−+ (rate constant D/H exchange d− to h+) [1, 5]: 0 s⁻¹ | k D−− (rate constant D/H exchange d− to h−) [1, 5]: 3.72e-05 s⁻¹ | k +− (enantiomerization rate constant used in analysis of d-rac) [1, 6]: 0.264 h⁻¹ | k d (degradation rate constant for the enantiomers of d-rac) [1, 6]: 2.51e-05 s⁻¹ | k −+ (enantiomerization rate constant used in analysis of d-rac) [1, 6]: 0.195 h⁻¹ | Calculated half-life t1/2, D/H exchange of d+ (D++ and D+−) ([2]; mouse plasma, 37° C.): 14.5 h | Calculated half-life t1/2, D/H exchange of d− (D−+ and D−−) ([2]; mouse plasma, 37° C.): 12.7 h | Calculated half-life t1/2, degradation d ([2]; mouse plasma, 37° C.): 13.0 h | Calculated half-life t1/2, enantiomerization +− ([2]; mouse plasma, 37° C.): 10.5 h | Calculated half-life t1/2, enantiomerization −+ ([2]; mouse plasma, 37° C.): 7.2 h | k D++ (rate constant D/H exchange d+ to h+) [2, 7]: 1.29e-05 s⁻¹ | k D+− (rate constant D/H exchange d+ to h−) [2, 7]: 3.03e-07 s⁻¹ | k D−+ (rate constant D/H exchange d− to h+) [2, 7]: 4.61e-06 s⁻¹ | k D−− (rate constant D/H exchange d− to h−) [2, 7]: 1.06e-05 s⁻¹ | k +− (enantiomerization rate constant used in analysis of d-rac) [2, 8]: 0.0662 h⁻¹ | k d (degradation rate constant for the enantiomers of d-rac) [2, 8]: 1.48e-05 s⁻¹ | k −+ (enantiomerization rate constant used in analysis of d-rac) [2, 8]: 0.0959 h⁻¹

Cc1nc2cccc(N)c2c(=O)n1C1CCC(=O)NC1=O (single isomer, unassigned; (-)) [h−, (−)-3-(5-amino-2-methyl-4-oxoquinazolin-3(4H)-yl)-piperidine-2,6-dione, reference compound]
k +− (enantiomerization rate constant h+ to h−) ([1]; human): 0.231 h⁻¹ | k d (degradation rate constant) ([1]; human): 2.35e-05 s⁻¹ | k −+ (enantiomerization rate constant h− to h+) ([1]; human): 0.169 h⁻¹ | half-life ([1]; human, plasma, Calculated half-life t1/2, degradation d): 8.2 h | half-life ([1]; human, plasma, Calculated half-life t1/2, enantiomerization +−): 3 h | k +− (enantiomerization rate constant h+ to h−) ([2]; CD-1, mouse): 0.0722 h⁻¹ | k d (degradation rate constant) ([2]; CD-1, mouse): 1.51e-05 s⁻¹ | k −+ (enantiomerization rate constant h− to h+) ([2]; CD-1, mouse): 0.0730 h⁻¹ | half-life ([2]; CD-1, mouse, plasma, Calculated half-life t1/2, degradation d): 12.7 h | half-life ([2]; CD-1, mouse, plasma, Calculated half-life t1/2, enantiomerization +−): 9.6 h | half-life ([2]; CD-1, mouse, plasma, Calculated half-life t1/2, enantiomerization −+): 9.5 h | share of the total exposure ([3]; mice, exposure to the enantiomers of the protonated molecule (h-rac dosed)): 39%

[2H]C1(n2c(C)nc3cccc(N)c3c2=O)CCC(=O)NC1=O (single isomer, unassigned; (-)) [d−, (−)-3-(5-Amino-2-methyl-4-oxoquinazolin-3(4H)-yl)-(3-^2H)-piperidine-2,6-dione]
t1/2, compound analyzed d− [3, 9]: 1.2 h | t1/2, compound analyzed h− [3, 9]: 1.2 h | AUC, compound analyzed d+ [3, 9]: 898 ng·h/mL | AUC, compound analyzed d− [3, 9]: 44100 ng·h/mL | AUC, compound analyzed h+ [3, 9]: 1180 ng·h/mL | AUC, compound analyzed h− [3, 9]: 6160 ng·h/mL | potency/efficacy at limiting tumor growth, comparison between compounds [4]: more potent at limiting tumor growth at both doses than h-rac

[2H]C1(n2c(C)nc3cccc(N)c3c2=O)CCC(=O)NC1=O (single isomer, unassigned; (+)) [d+, (+)-3-(5-Amino-2-methyl-4-oxoquinazolin-3(4H)-yl)-(3-^2H)-piperidine-2,6-dione]
t1/2, compound analyzed d+ [3, 9]: 1.1 h | t1/2, compound analyzed h+ [3, 9]: 1.0 h | AUC, compound analyzed d+ [3, 9]: 63600 ng·h/mL | AUC, compound analyzed d− [3, 9]: 661 ng·h/mL | AUC, compound analyzed h+ [3, 9]: 6120 ng·h/mL | AUC, compound analyzed h− [3, 9]: 993 ng·h/mL | efficacy (tumor volume) by dose ([4]; 1.5 or 15 mg/kg): observed only at the highest dose | potency/efficacy at limiting tumor growth, comparison between compounds [4]: less efficacious than d−

Cc1nc2cccc(N)c2c(=O)n1C1CCC(=O)NC1=O (single isomer, unassigned; (+)) [h+, (+)-3-(5-amino-2-methyl-4-oxoquinazolin-3(4H)-yl)-piperidine-2,6-dione, reference compound]
k +− (enantiomerization rate constant h+ to h−) ([1]; human): 0.297 h⁻¹ | k d (degradation rate constant) ([1]; human): 2.68e-05 s⁻¹ | k −+ (enantiomerization rate constant h− to h+) ([1]; human): 0.220 h⁻¹ | Calculated half-life t1/2, degradation d ([1]; human, plasma): 7.2 h | Calculated half-life t1/2, enantiomerization +− ([1]; human, plasma): 2.3 h | half-life ([1]; human, plasma, Calculated half-life t1/2, enantiomerization −+): 3.2 h | k +− (enantiomerization rate constant h+ to h−) ([2]; CD-1, mouse): 0.0603 h⁻¹ | k d (degradation rate constant) ([2]; CD-1, mouse): 1.45e-05 s⁻¹ | k −+ (enantiomerization rate constant h− to h+) ([2]; CD-1, mouse): 0.119 h⁻¹ | Calculated half-life t1/2, degradation d ([2]; CD-1, mouse, plasma): 13.3 h | Calculated half-life t1/2, enantiomerization +− ([2]; CD-1, mouse, plasma): 11.5 h | Calculated half-life t1/2, enantiomerization −+ ([2]; CD-1, mouse, plasma): 5.8 h
